The subject of assay [1] is asexual blood stage P. falciparum NF54 (drug sensitive). In words: SYBR Green I proliferation assay, asexual blood stage Pf NF54. Type of assay: cell-based. The note with it: Plasmodium falciparum, NF54; asexual blood stage, SYBR Green I, 96 h, mean ± SEM; this study; read-out: IC50 NF54. As for the experimental part:
In vitro cultivation of asexual and gametocyte P. falciparum parasites: P. falciparum asexual blood stage parasites were cultivated in human erythrocytes in RPMI-1640 media supplemented with AlbuMax II under sterile conditions and in a hypoxic environment (90% N2, 5% CO2, and 5% O2) at 37°C as described previously ([Coertzen et al., 2018]; [Wong et al., 2019]). Gametocytes were produced from asexual blood stage parasites in a stage-specific manner through induction of cellular stress as described previously ([Reader et al., 2015]; [Coertzen et al., 2018]; [Wong et al., 2019]; [Reader et al., 2022]).
DHA, artesunate, artemether, chloroquine (CQ), and methylene blue (MB) were used as reference drugs. All assay conditions are as previously described ([Coertzen et al., 2018]; [Wong et al., 2019]). […] Dose-responses were determined using a 2-fold serial drug dilution on in vitro 95% ring-stage intraerythrocytic Pf parasites (1% parasitemia, 1% hematocrit) at 37°C under 90% N2, 5% CO2, and 5% O2 atmospheric conditions, detecting SYBR green I fluorescence as a marker for parasite proliferation following a 96 h drug treatment ([Smilkstein et al., 2004]; [Verlinden et al., 2011]). Activity against the Pf drug-sensitive NF54 strain and the multi drug-resistant K1 (resistant to CQ, quinine, pyrimethamine, and cycloguanil), and W2 (resistant to CQ, quinine, pyrimethamine, and cycloguanil) strains was evaluated. […] Data analysis was performed using GraphPad Prism (version 6) software, intra-assay variability was monitored with Z-factors, and acceptable inter-assay reproducibility was determined from the percent coefficient of variation (CV) ([Reader et al., 2015]). […]
Activity was determined using the SYBR Green I based fluorescence assay on asexual blood stages of the NF54 (drug sensitive), K1 and W2 (drug resistant) strains of P. falciparum. […] Also included in Table 1 for direct comparison of activities against celastrol are data for the internal reference standards MB and artemisone recorded at the same time as for celastrol. […]

Assay [2] deals with asexual blood stage Pf NF54. Description: Fixed-ratio isobole drug combination assay (SYBR Green I). The assay is classed as cell-based, Plasmodium falciparum. As for the experimental part: The in vitro interactions of celastrol with artemisone and MB was determined using a fixed-ratio isobole analysis on Pf NF54 asexual parasites (SYBR Green I-based fluorescence). […] The fractional inhibitory concentration (FIC) for each drug in the combination was calculated as follows:
FIC = IC50 of drug A in combination with drug B/IC50 of drug A
The paired FIC values for the drugs in each combination were linearly plotted to provide the isobologram. The ΣFIC of FIC of drug A in combination with FIC of drug B was determined by calculating the mean FIC value, to obtain the representative FIC value for the drug combination. Data obtained were analysed in Excel, and sigmoidal dose-response curves and isobolograms were plotted using GraphPad 6.0. Experiments were performed in triplicate, and repeated 3 times.
As previously recorded for each of artemiside and artemisone in combination with MB ([Coertzen et al., 2018]), drug-drug interactions were monitored through evaluation of fractional inhibitory concentration (FIC) as determined by isobolograms. A mean ΣFIC<1.0 represents a synergistic interaction, >1.3 an antagonistic interaction and ΣFIC = 1 an indifferent or additive interaction. Isobologram analysis of the combinations of each of artemisone and MB in combination with celastrol was performed against the asexual stages of Pf NF54 using the SYBR Green I based assay. In Table 3 are shown the calculated FIC values for the independent combinations at each ratio as well as the ∑FIC values for each combination. In Figure 5 are presented the independent isoboles for each drug combination.

Assay [3] has as its system asexual blood stage P. falciparum NF54 (drug sensitive). Details: method as in Coertzen et al., 2018; Wong et al., 2019. The note with it: SYBR Green I, mean ± SEM, ref Coertzen et al., 2018, Wong et al., 2019; cited from earlier work.
The subject of assay [4] is asexual blood stage P. falciparum K1 (multidrug resistant). The note with it: asexual blood stage, SYBR Green I, mean ± SEM; ref Coertzen et al., 2018; Wong et al., 2019; cited from earlier work.
Assay [5] relates to asexual blood stage P. falciparum W2 (multidrug resistant). Also on record: method as in Coertzen et al., 2018; Wong et al., 2019. The note with it: asexual blood stage, SYBR Green I, mean ± SEM; ref Coertzen et al., 2018; Wong et al., 2019; cited from earlier work.
For assay [6], the system named is immature stage II-III P. falciparum NF54 gametocytes. Details: method as in Coertzen et al., 2018, Wong et al., 2019. The conditions noted are these: NF54 gametocytes, luciferase, 48 h, mean ± SEM; ref Coertzen et al., 2018, Wong et al., 2019; read-out: Immature stage II-III (luc 48 h) IC50; cited from earlier work.
Assay [7] has as its system late stage IV-V P. falciparum NF54 gametocytes. Details: method as in Coertzen et al., 2018, Wong et al., 2019. The conditions noted are these: NF54 gametocytes, luciferase, 72 h, mean ± SEM; ref Coertzen et al., 2018, Wong et al., 2019; read-out: Late stage IV-V (luc 72 h) IC50; cited from earlier work.
The test system of assay [8] is chloroquine sensitive Pf NF54 strain. The conditions noted are these: tritiated hypoxanthine assay; ref Figueiredo et al., 1998; Li et al., 2019; cited from earlier work.
For assay [9], the system named is multidrug resistant Pf K1 strain. The note with it: tritiated hypoxanthine assay; ref Figueiredo et al., 1998; Li et al., 2019; cited from earlier work.
The subject of assay [10] is Pf. Also on record: method as in Lanfranchi et al., 2012. The note with it: tritiated hypoxanthine assay; ref Lanfranchi et al., 2012; cited from earlier work.

Data on three compounds can be found in PMC9479156 (Frontiers in Pharmacology, 2022).

Where two headings read alike, the source gives them in different places.

Consider `CN(C)c1ccc2nc3ccc(=[N+](C)C)cc-3sc2c1` [Methylene Blue, methylene blue, reference compound], for which the IC50 – broadly, the concentration at which inhibition is half-maximal – in assay [1] was 0.0059 ± 0.0008 µM; in assay [3], 0.005 µM; in [4], 0.00645 ± 0.0003 µM; in assay [5], 0.00513 ± 0.00031 µM; in [6], 0.095 ± 0.0113 µM; in assay [7], 0.143 ± 0.0167 µM. Besides, the FIC in assay [2] (MB:celastrol drug ratio 20:80, Pf NF54) was determined as 0.70; in assay [2] (MB:celastrol drug ratio 40:60, Pf NF54), 0.67; in assay [2] (MB:celastrol drug ratio 60:40, Pf NF54), 0.66; in assay [2] (MB:celastrol drug ratio 80:20, Pf NF54), 0.79.

`COC(=O)[C@]1(C)CC[C@]2(C)CC[C@]3(C)C4=CC=C5C(=CC(=O)C(O)=C5C)[C@]4(C)CC[C@@]3(C)[C@@H]2C1` [Pristimerin, pristimerin, reference compound]: the half-maximal inhibitory concentration (IC50) in assay [8] is 0.583 µM; in [9], 0.409 µM.

Turning to `CC1=CC(=O)c2ccccc2C1=O` [menadione], the 50% inhibitory concentration (IC50) in assay [10] is 9.6 to 12 µM.
